How the values were obtained:
Format in all cases: in vivo
[1] = tested on: barnyardgrass (Echinochloa crus-galli); assay: Test A preemergence, barnyardgrass; conditions: 0 to 100 scale (0 no effect, 100 complete control)
Procedure, shortened: (§1)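 Greenhouse pot test in loam/sand soil. Pre: directed soil spray after seeding. Post: 1–2-leaf plants, 2–10 cm. Formulation: non-phytotoxic solvent + surfactant. Visual rating vs untreated controls at ~10 d, 0 (no effect) to 100 (complete control).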

kochia (Kochia scoparia) [2] = assay: Test A preemergence, kochia; conditions: 0 to 100 scale (0 no effect, 100 complete control)
Procedure, shortened: as §1

[3] = tested on: ragweed (common ragweed, Ambrosia elatior); assay: Test A preemergence, ragweed; conditions: 0 to 100 scale (0 no effect, 100 complete control)
Procedure, shortened: as §1

[4] = tested on: ryegrass, Italian (Lolium multiflorum); assay: Test A preemergence, Italian ryegrass; conditions: 0 to 100 scale (0 no effect, 100 complete control)
Procedure, shortened: as §1

[5] = tested on: foxtail, giant (Setaria faberii); assay: Test A preemergence, giant foxtail; conditions: 0 to 100 scale (0 no effect, 100 complete control)
Procedure, shortened: as §1

[6] = tested on: pigweed (Amaranthus retroflexus); assay: Test A preemergence, pigweed; conditions: 0 to 100 scale (0 no effect, 100 complete control)
Procedure, shortened: as §1

[7] = tested on: barnyardgrass (Echinochloa crus-galli); assay: Test A postemergence, barnyardgrass; conditions: visual injury, 0 to 100 scale (0 no effect, 100 complete control), approximately 10 days
Procedure, shortened: as §1

kochia (Kochia scoparia) [8] = assay: Test A postemergence, kochia; conditions: visual injury, 0 to 100 scale (0 no effect, 100 complete control), approximately 10 days
Procedure, shortened: as §1

[9] = tested on: ragweed (common ragweed, Ambrosia elatior); assay: Test A postemergence, ragweed; conditions: visual injury, 0 to 100 scale (0 no effect, 100 complete control), approximately 10 days
Procedure, shortened: as §1

[10] = tested on: ryegrass, Italian (Lolium multiflorum); assay: Test A postemergence, Italian ryegrass; conditions: visual injury, 0 to 100 scale (0 no effect, 100 complete control), approximately 10 days
Procedure, shortened: as §1

[11] = tested on: foxtail, giant (Setaria faberii); assay: Test A postemergence, giant foxtail; conditions: visual injury, 0 to 100 scale (0 no effect, 100 complete control), approximately 10 days
Procedure, shortened: as §1

[12] = tested on: pigweed (Amaranthus retroflexus); assay: Test A postemergence, pigweed; conditions: visual injury, 0 to 100 scale (0 no effect, 100 complete control), approximately 10 days
Procedure, shortened: as §1

[13] = tested on: blackgrass (Alopecurus myosuroides); assay: Test A postemergence, blackgrass; conditions: visual injury, 0 to 100 scale (0 no effect, 100 complete control), approximately 10 days
Procedure, shortened: as §1

[14] = tested on: galium (catchweed bedstraw, Galium aparine); assay: Test A postemergence, galium; conditions: visual injury, 0 to 100 scale (0 no effect, 100 complete control), approximately 10 days
Procedure, shortened: as §1

[15] = tested on: wheat (Triticum aestivum); assay: Test A postemergence, wheat; conditions: visual injury, 0 to 100 scale (0 no effect, 100 complete control), approximately 10 days
Procedure, shortened: as §1

corn (Zea mays) = assay: Test A postemergence, corn; conditions: visual injury, 0 to 100 scale (0 no effect, 100 complete control), approximately 10 days
Procedure, shortened: as §1

rice (Oryza sativa) = assay: Test B flooded paddy test, rice; conditions: 250 g ai/ha, applied to paddy water, visual rating after 13 to 15 days, scale 0 (no effect) to 100 (complete control)
Procedure, shortened: (§2)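 Ratings were visual and made relative to untreated controls after 13 to 15 greenhouse days.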

[16] = tested on: sedge, umbrella (small-flower umbrella sedge, Cyperus difformis); assay: Test B flooded paddy test, umbrella sedge; conditions: 250 g ai/ha, applied to paddy water, visual rating after 13 to 15 days, scale 0 (no effect) to 100 (complete control)
Procedure, shortened: as §2

[17] = tested on: ducksalad (Heteranthera limosa); assay: Test B flooded paddy test, ducksalad; conditions: 250 g ai/ha, applied to paddy water, visual rating after 13 to 15 days, scale 0 (no effect) to 100 (complete control)
Procedure, shortened: as §2

[18] = tested on: barnyardgrass (Echinochloa crus-galli); assay: Test B flooded paddy test, barnyardgrass; conditions: 250 g ai/ha, applied to paddy water, visual rating after 13 to 15 days, scale 0 (no effect) to 100 (complete control)
Procedure, shortened: as §2

SMILES | Plant response rating, Barnyardgrass ([1]; 125 g ai/ha) | Plant response rating, Barnyardgrass ([1]; 500 g ai/ha) | Plant response rating, Kochia (kochia (Kochia scoparia) [2]; 125 g ai/ha) | Plant response rating, Kochia (kochia (Kochia scoparia) [2]; 500 g ai/ha) | Plant response rating, Ragweed ([3]; 125 g ai/ha) | Plant response rating, Ragweed ([3]; 500 g ai/ha) | Plant response rating, Ryegrass, Italian ([4]; 125 g ai/ha) | Plant response rating, Ryegrass, Italian ([4]; 500 g ai/ha) | Plant response rating, Foxtail, Giant ([5]; 125 g ai/ha) | Plant response rating, Foxtail, Giant ([5]; 500 g ai/ha) | Plant response rating, Pigweed ([6]; 125 g ai/ha) | Plant response rating, Pigweed ([6]; 500 g ai/ha) | Plant response rating, Barnyardgrass ([7]; 125 g ai/ha) | Plant response rating, Barnyardgrass ([7]; 500 g ai/ha) | Plant response rating, Kochia (kochia (Kochia scoparia) [8]; 125 g ai/ha) | Plant response rating, Kochia (kochia (Kochia scoparia) [8]; 500 g ai/ha) | Plant response rating, Ragweed ([9]; 125 g ai/ha) | Plant response rating, Ragweed ([9]; 500 g ai/ha) | Plant response rating, Ryegrass, Italian ([10]; 125 g ai/ha) | Plant response rating, Ryegrass, Italian ([10]; 500 g ai/ha) | other results
CON=Cc1cccc(C2CN(C)C(=O)C2C(=O)Nc2ccccc2F)c1 (stereo not drawn) [Compound 53, N-(2-fluorophenyl)-4-[3-[(methoxyimino)methyl]phenyl]-1-methyl-2-oxo-3-pyrrolidinecarboxamide] | 90 | 90 | 60 | 70 | 0 | 0 | 0 | 0 | 90 | 90 | 0 | 0 | 70 | 90 | 0 | 0 | 0 | 0 | 0 | 0 | Plant response rating, Foxtail, Giant ([11]; 125 g ai/ha): 80; Plant response rating, Foxtail, Giant ([11]; 500 g ai/ha): 90; Plant response rating, Pigweed ([12]; 125 g ai/ha): 0; Plant response rating, Pigweed ([12]; 500 g ai/ha): 0; Plant response rating, Blackgrass ([13]; 125 g ai/ha): 0; Plant response rating, Blackgrass ([13]; 500 g ai/ha): 20; Plant response rating, Galium ([14]; 125 g ai/ha): 0; Plant response rating, Galium ([14]; 500 g ai/ha): 30; Plant response rating, Wheat ([15]; 125 g ai/ha): 0; Plant response rating, Wheat ([15]; 500 g ai/ha): 0; Plant response rating, Corn (corn (Zea mays); 125 g ai/ha): 0; Plant response rating, Corn (corn (Zea mays); 500 g ai/ha): 0; Plant response rating, Rice (Flood) (rice (Oryza sativa)): 0; Plant response rating, Sedge, Umbrella (Flood) [16]: 0; Plant response rating, Ducksalad (Flood) [17]: 70; Plant response rating, Barnyardgrass (Flood) [18]: 30
O=C1NCC(c2cccc(OCC3CC3)c2)C1C(=O)Nc1ccccc1F (stereo not drawn) [Compound 11] | 60 | 90 | 0 | 40 | 0 | 0 | 0 | 20 | 80 | 90 | 0 | 30 | 50 | 90 | 0 | 0 | 30 | 40 | 0 | 20 | Plant response rating, Foxtail, Giant ([11]; 125 g ai/ha): 50; Plant response rating, Foxtail, Giant ([11]; 500 g ai/ha): 90; Plant response rating, Pigweed ([12]; 125 g ai/ha): 0; Plant response rating, Pigweed ([12]; 500 g ai/ha): 20; Plant response rating, Blackgrass ([13]; 125 g ai/ha): 0; Plant response rating, Blackgrass ([13]; 500 g ai/ha): 40; Plant response rating, Galium ([14]; 125 g ai/ha): 0; Plant response rating, Galium ([14]; 500 g ai/ha): 30; Plant response rating, Wheat ([15]; 125 g ai/ha): 0; Plant response rating, Wheat ([15]; 500 g ai/ha): 20; Plant response rating, Corn (corn (Zea mays); 125 g ai/ha): 0; Plant response rating, Corn (corn (Zea mays); 500 g ai/ha): 20; Plant response rating, Rice (Flood) (rice (Oryza sativa)): 0; Plant response rating, Sedge, Umbrella (Flood) [16]: 0; Plant response rating, Ducksalad (Flood) [17]: 0; Plant response rating, Barnyardgrass (Flood) [18]: 0

— US10405547B2, “Substituted cyclic amides as herbicides” (FMC Corporation, priority 2015, dated 2019)
